Assays:
[1] = test system: SK-OV-3 (Ovarian Carcinoma); experiment: combination Emax (second highest fraction inhibited in the dose matrix, 72 h); higher = more inhibition; extreme values may be limits of the assay
How it was run: (§1)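 Bliss excess equals the observed combination effect minus the expected value EA + EB − EA·EB, where EA and EB are the effects of each agent alone. Combination Emax is the second-highest inhibition within the matrix. Inhibition was scaled from CellTiter-Glo 2.0 luminescence, with 0 set by vehicle wells and 1 by blank wells, after 72 hours of two-drug dosing of cells plated in 1536-well plates.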

[2] = test system: LoVo (Colorectal Carcinoma); experiment: as above
How it was run: as §1

[3] = test system: SUP-T1 (T-Lymphoblastic Leukemia); experiment: as above
How it was run: as §1

[4] = test system: RT-112 (Bladder Carcinoma); experiment: as above
How it was run: as §1

[5] = test system: CAL-54 (Kidney Carcinoma); experiment: Bliss excess, mean over the matrix (fraction); higher = more synergy
How it was run: as §1

[6] = test system: KYSE-410 (Esophageal Squamous Cell Carcinoma); experiment: as above
How it was run: as §1

COLO-829 (Melanoma) = experiment: as above
How it was run: as §1

[7] = test system: MDA-MB-468 (Breast Carcinoma); experiment: as above
How it was run: as §1

[8] = test system: CAPAN-1 (Pancreatic Carcinoma); experiment: as above
How it was run: as §1

[9] = test system: Hs-633T (Other Solid Carcinomas); experiment: as above
How it was run: as §1

[10] = test system: RKO (Colorectal Carcinoma); experiment: as above
How it was run: as §1

[11] = test system: 8305C (Thyroid Gland Carcinoma); experiment: as above
How it was run: as §1

[12] = test system: CAL-51 (Breast Carcinoma); experiment: as above
How it was run: as §1

[13] = test system: SUP-T1 (T-Lymphoblastic Leukemia); experiment: as above
How it was run: as §1

[14] = test system: UMC-11 (Other Solid Carcinomas); experiment: as above
How it was run: as §1

[15] = test system: HDLM-2 (Hodgkin's Lymphoma); experiment: as above
How it was run: as §1

[16] = test system: LU-139 (Small Cell Lung Carcinoma); experiment: as above
How it was run: as §1

[17] = test system: RT-112 (Bladder Carcinoma); experiment: as above
How it was run: as §1

[18] = test system: LB771-HNC (Head and Neck Carcinoma); experiment: as above
How it was run: as §1

[19] = test system: KARPAS-231 (B-Cell Non-Hodgkin's Lymphoma); experiment: as above
How it was run: as §1

Row | SMILES | combination Emax [1] | combination Emax [2] | combination Emax [3] | combination Emax [4] | Bliss excess [5] | Bliss excess [6] | Bliss excess (COLO-829 (Melanoma)) | Bliss excess [7] | Bliss excess [8] | Bliss excess [9] | Bliss excess [10] | Bliss excess [11] | Bliss excess [12] | Bliss excess [13] | Bliss excess [14] | Bliss excess [15] | Bliss excess [16] | Bliss excess [17] | Bliss excess [18] | Bliss excess [19]
1 | CC1(C)CCC(CN2CCN(c3ccc(C(=O)NS(=O)(=O)c4ccc(NCC5CCOCC5)c([N+](=O)[O-])c4)c(Oc4cnc5[nH]ccc5c4)c3)CC2)=C(c2ccc(Cl)cc2)C1 [Venetoclax] + CN(C)CCCOc1ccc(-c2ccc3ncc4c(c3c2)n(C2CCOCC2)c(=O)n4C)cn1 [AZD0156] (first compound max 1 µM, 7x7, partner max 1 µM) | 0.239 | 0.283 | 0.616 | 0.243 | -0.0085 | -0.0377 | -0.0264 | -0.0294 | -0.0696 | -0.0023 | 0.0566 | -0.0626 | 0.0064 | -0.0294 | -0.0004 | -0.0015 | 0.0014 | -0.0232 | -0.0215 | -0.0599
2 | C=CCn1c(=O)c2cnc(Nc3ccc(N4CCN(C)CC4)cc3)nc2n1-c1cccc(C(C)(C)O)n1 [AZD1775] + C[C@@H]1COCCN1C2=NC(=NC(=C2)C3(CC3)[S@](=N)(=O)C)C4=C5C=CNC5=NC=C4 [AZD6738] (first compound max 1 µM, partner max 10 µM) | 0.755 | 0.875 | 0.882 | 0.966 | -0.0377 | -0.0061 | -0.0194 | 0.0344 | -0.0951 | 0.0309 | 0.0529 | -0.122 | 0.0981 | -0.0352 | -0.0454 | -0.0511 | -0.0149 | 0.0578 | -0.0057 | 0.0545
3 | NC1(C(=O)N[C@@H](CCO)c2ccc(Cl)cc2)CCN(c2ncnc3[nH]ccc23)CC1 [Capivasertib] + CCN(CCO)CCCOc1ccc2c(Nc3cc(CC(=O)Nc4cccc(F)c4)[nH]n3)ncnc2c1 [AZD2811] (first compound max 10 µM, 7x7, partner max 1 µM) | 0.394 | 0.632 | 0.83 | 0.375 | -0.0357 | -0.0104 | 0.0142 | -0.063 | -0.0486 | 0.0136 | -0.0055 | 0.0022 | 0.0519 | 0.0016 | -0.0195 | 0.0228 | 0.0616 | -0.0152 | -0.0549 | -0.111
4 | COc1cccc(OCCCN)c1-c1cc(Nc2cnc(C#N)cn2)n[nH]1 [Prexasertib] + C[C@@H]1COCCN1C2=NC(=NC(=C2)C3(CC3)[S@](=N)(=O)C)C4=C5C=CNC5=NC=C4 [AZD6738] (first compound max 1 µM, 7x7, partner max 10 µM) | 0.806 | 0.869 | 0.808 | 0.992 | -0.0883 | -0.0548 | 0.001 | -0.0106 | -0.0436 | 0.0095 | -0.0176 | -0.0226 | -0.0078 | -0.0374 | -0.0213 | -0.0669 | 0.0339 | 0.0275 | -0.0024 | -0.0498
5 | Cc1cc2ncnn2cc1Nc1ncc2c(n1)n(C1CCOCC1)c(=O)n2C [AZD7648] + C[C@@H]1COCCN1C2=NC(=NC(=C2)C3(CC3)[S@](=N)(=O)C)C4=C5C=CNC5=NC=C4 [AZD6738] (first compound max 10 µM, 7x7, partner max 10 µM) | 0.638 | 0.813 | 0.744 | 0.93 | -0.0183 | 0.0285 | -0.0088 | -0.0063 | 0.0322 | -0.0138 | 0.0059 | 0.02 | 0.0017 | 0.0052 | 0.0002 | -0.0357 | 0.0121 | 0.0746 | 0.0039 | 0.0018
6 | CC(=O)c1c(C)c2cnc(Nc3ccc(N4CCNCC4)cn3)nc2n(C2CCCC2)c1=O [Palbociclib] + Cn1cnc2c(F)c(Nc3ccc(Br)cc3Cl)c(C(=O)NOCCO)cc21 [Selumetinib] (first compound max 10 µM, 7x7, partner max 10 µM) | 0.237 | 0.679 | 0.599 | 0.427 | -0.0125 | 0.0141 | -0.0772 | -0.0555 | -0.0741 | 0.0767 | 0.082 | 0.0123 | 0.0035 | -0.0478 | 0.079 | -0.0362 | 0.0109 | -0.0333 | -0.0893 | -0.134
7 | CCc1c2c(nc3ccc(O)cc13)-c1cc3c(c(=O)n1C2)COC(=O)[C@]3(O)CC [SN-38] + O=C(c1cc(Cc2n[nH]c(=O)c3ccccc23)ccc1F)N1CCN(C(=O)C2CC2)CC1 [Olaparib] (first compound max 0.3 µM, 7x7, partner max 10 µM) | 0.535 | 0.717 | 0.84 | 0.762 | -0.0068 | 0.0014 | -0.0186 | 0.0941 | 0.0168 | 0.17 | 0.0223 | 0.04 | 0.119 | 0.0435 | 0.035 | -0.0438 | 0.0842 | 0.116 | -0.0181 | 0.113
8 | CN(C)CCCOc1ccc(-c2ccc3ncc4c(c3c2)n(C2CCOCC2)c(=O)n4C)cn1 [AZD0156] + C[C@@H]1COCCN1C2=NC(=NC(=C2)C3(CC3)[S@](=N)(=O)C)C4=C5C=CNC5=NC=C4 [AZD6738] (first compound max 1 µM, 7x7, partner max 10 µM) | 0.617 | 0.867 | 0.78 | 0.919 | -0.0136 | -0.0201 | -0.0327 | -0.011 | -0.0775 | 0.0537 | 0.0186 | -0.0765 | 0.0198 | -0.0344 | -0.0176 | -0.0448 | -0.0323 | 0.0798 | -0.025 | 0.0732
9 | COc1cccc(OCCCN)c1-c1cc(Nc2cnc(C#N)cn2)n[nH]1 [Prexasertib] + O=C(c1cc(Cc2n[nH]c(=O)c3ccccc23)ccc1F)N1CCN(C(=O)C2CC2)CC1 [Olaparib] (first compound max 1 µM, 7x7, partner max 10 µM) | 0.713 | 0.798 | 0.79 | 0.797 | -0.0942 | -0.0463 | -0.058 | -0.106 | -0.111 | -0.0074 | -0.0165 | -0.0732 | -0.0744 | -0.0966 | 0.0014 | -0.046 | -0.0401 | -0.137 | -0.0162 | -0.0206
10 | Cc1nc(Nc2ncc(C(=O)Nc3c(C)cccc3Cl)s2)cc(N2CCN(CCO)CC2)n1 [Dasatinib] + CC(=O)Nc1cccc(-n2c(=O)n(C3CC3)c(=O)c3c(Nc4ccc(I)cc4F)n(C)c(=O)c(C)c32)c1 [Trametinib] (first compound max 2 µM, 7x7, partner max 1 µM) | 0.392 | 0.801 | 0.577 | 0.584 | -0.0031 | -0.0622 | -0.159 | -0.0521 | 0.0044 | 0.0302 | 0.119 | 0.0279 | -0.017 | -0.0967 | -0.0733 | -0.0467 | -0.0243 | -0.0344 | -0.0363 | -0.0267
11 | CCN(CCO)CCCOc1ccc2c(Nc3cc(CC(=O)Nc4cccc(F)c4)[nH]n3)ncnc2c1 [AZD2811] + O=C(c1cc(Cc2n[nH]c(=O)c3ccccc23)ccc1F)N1CCN(C(=O)C2CC2)CC1 [Olaparib] (first compound max 1 µM, 7x7, partner max 10 µM) | 0.226 | 0.354 | 0.528 | 0.424 | -0.0073 | -0.0308 | 0.0233 | 0.0541 | -0.0091 | 0 | 0.0655 | -0.0398 | 0.0272 | 0.0208 | -0.0715 | -0.0224 | -0.0495 | 0.0427 | 0.0255 | 0.0091
12 | Cc1c2c(nn1C)CSCc1cc(n(C)n1)CSc1cc(c3ccccc3c1)OCCCc1c(C(=O)O)n(C)c3c-2c(Cl)ccc13 [AZD5991] + CCN(CCO)CCCOc1ccc2c(Nc3cc(CC(=O)Nc4cccc(F)c4)[nH]n3)ncnc2c1 [AZD2811] (first compound max 1 µM, 7x7, partner max 1 µM) | 0.301 | 0.314 | 0.419 | 0.986 | -0.0018 | 0.045 | -0.0319 | -0.0025 | -0.0303 | -0.0106 | 0.0201 | -0.0204 | 0.112 | 0.0561 | -0.0037 | -0.0117 | 0.0672 | 0.125 | 0.0432 | -0.007
13 | CC(=O)c1c(C)c2cnc(Nc3ccc(N4CCNCC4)cn3)nc2n(C2CCCC2)c1=O [Palbociclib] + Cc1c2c(nn1C)CSCc1cc(n(C)n1)CSc1cc(c3ccccc3c1)OCCCc1c(C(=O)O)n(C)c3c-2c(Cl)ccc13 [AZD5991] (first compound max 10 µM, 7x7, partner max 1 µM) | 0.179 | 0.557 | 0.656 | 0.568 | -0.0781 | -0.0657 | -0.0232 | 0.0078 | -0.033 | 0.004 | 0.0342 | -0.0706 | 0.0124 | 0.0394 | -0.0475 | -0.072 | 0.0198 | -0.0524 | -0.0622 | -0.0835
14 | CC(=O)Nc1cccc(-n2c(=O)n(C3CC3)c(=O)c3c(Nc4ccc(I)cc4F)n(C)c(=O)c(C)c32)c1 [Trametinib] + Cc1nc(-c2cn3c(n2)-c2ccc(-c4cnn(C(C)(C)C(N)=O)c4)cc2OCC3)n(C(C)C)n1 [Taselisib] (first compound max 1 µM, 7x7, partner max 10 µM) | 0.797 | 0.708 | 0.596 | 0.884 | 0.0303 | 0.168 | 0.234 | -0.0919 | 0.129 | 0.191 | 0.219 | 0.0656 | 0.0242 | 0.0363 | 0.0075 | 0.0406 | -0.0203 | 0.106 | 0.125 | -0.0605

From the supplement of paper PMC11061612
